Laboratory results reported in patent US20080207446A1, “Use of Phenylsemicarbazones for Seed Treatment” (BASF Aktiengesellschaft, priority 2005, published 2008).

How the values were obtained:
Format in all cases: in vivo
Helix hortensis = assay: Greenhouse snail trial on sprayed lettuce; conditions: lettuce sprayed with 240 g active ingredient per ha (240 g/l suspension concentrate)
Description: For this example, a 240 g/l suspension concentrate of a compound I with R^1=trifluoromethyl in meta position, R^2=cyano in para position and R^3=trifluoromethoxy in para position was used with an application rate of 240 gram active ingredient per ha.
The trial was carried out in the greenhouse under practical conditions in sandy soil. Three lettuce plants, variety Filipo, growth stage 45-46, were used as plot size. The lettuce was sprayed with a solution of the above mentioned compound at a rate of 240 gram active ingredient per hectare with 500 l/ha water. For spraying was a single Teejet® nozzle, model 8002 (from Spraying System Mobile Systems Division, Wheaton, Ill., USA), at 3 atmosphere pressure used.
After the spray application, the plots were covered by net cages (diameter 40 cm) and 20 snails (sexually mature individuals of Helix hortensis) were added to every plot.
Also an estimation of eating damages was recorded.

carrot seeds = assay: Absence of phytotoxicity: sprouting of treated carrot seeds; conditions: for Influence on the viability of carrot seeds: seed treatment, conclusion from Table 1
Description: To determine the effect of seed treatment on the viability of seeds and sprouting plants, carrot seeds were either treated with metaflumizone, coated with the insecticide chlorfenvinphos (commercially available under, and herein referred to by, the name Birlane™) or left untreated, then sowed and raised under controlled environmental conditions. At day 20 and day 43, respectively, the percentage of seeds which had sprouted was assessed.

Psila rosae [1] = assay: Short-term protection of carrots against Psila rosae by seed coating; conditions: for Reduction of early damage by maggots: conclusion from Table 2
Text: In order to determine the efficacy of seed coating against dipteran larvae, carrot seeds were coated with two different concentrations of metaflumizone, Birlane™ or left untreated, then sowed and raised as described in Example 1. At day 35 after sowing, the plants were exposed to infestation by Psila rosae, which was monitored by adult trap catches. 300 to 400 insects per trap indicated fair infestation pressure. At days 35 and 91, respectively, 100 plants per field were examined for maggot infestation.
All test products were applied by seed coating of carrot seeds. Birlane™ was applied according to label recommendations for carrots. Metaflumizone was applied at 50 ml and 100 ml formulated product per seed unit, respectively. The assessments of carrot rooffly damage were conducted 35 and 91 daysafter sowing. Infestation was evaluated by assessing 100 carrot roots per treatment, and the number of infested plants was recorded. The figures included in the table show the percentage of damaged plants by treatment.

Psila rosae [2] = assay: Long-term effect of carrot seed coating against Psila rosae; conditions: for Percentage of plants infested with Psila rosae (long-term): carrot seed coating 100 ml/unit; for Persistence of the protective effect of seed treatment: carrot seed coating, conclusion from Table 3
Description: The objective of this trial was the direct comparison of metaflumizone with the market standard Birlane™ at 100 ml product per unit of seed. Activity evaluation considered the residual activity of the products up to 124 days after application.
Carrot seeds were coated or left uncoated, sowed and raised as described in Example 2 and subjected to Psila rosae infestation at an approximate density of 300 to 400 insects per trap at days 46 to 53 after sowing. At days 82, 96, 110 and 124, respectively, 100 plants per field were examined for maggot infestation.

Psila rosae [3] = assay: Effective dosage of metaflumizone on carrot seeds against Psila rosae
Text: In order to quantify the effect of metaflumizone against maggots, carrot seeds were coated with different concentrations of metaflumizone, with Birlane™ or left uncoated, then sowed and raised as described in the above Examples.

[4] = 4 days after placing the snails

N#Cc1ccc(C/C(=N/NC(=O)Nc2ccc(OC(F)(F)F)cc2)c2cccc(C(F)(F)F)c2)cc1 [metaflumizone, 2-[2-(4-cyanophenyl)-1-[3-(trifluoromethyl)phenyl]ethylidene]-N-[4-(trifluoromethoxy)phenyl]hydrazinecarboxamide]
snails inactive (Helix hortensis; 1 day after placing the snails): 47%
snails inactive (Helix hortensis; 2 days after placing the snails): 63%
snails dead (Helix hortensis; [4]): 71%
snails inactive (further to the dead) (Helix hortensis; [4]): 12%

N#Cc1ccc(CC(=NNC(=O)Nc2ccc(OC(F)(F)F)cc2)c2cccc(C(F)(F)F)c2)cc1 (racemic) [metaflumizone, 2-[2-(4-cyanophenyl)-1-[3-(trifluoromethyl)phenyl]ethylidene]-N-[4-(trifluoromethoxy)phenyl]hydrazinecarboxamide]
Percentage of growing plants (carrot seeds; carrot, in vivo, 20 day): 42%
Percentage of growing plants (carrot seeds; carrot, in vivo, 43 day): 47%
Influence on the viability of carrot seeds (carrot seeds): no significant influence
Percentage of plants infested with Psila rosae (Psila rosae [1]; carrot seed coating 50 ml/unit, Day 35 after sowing): 3%
Percentage of plants infested with Psila rosae (Psila rosae [1]; carrot seed coating 50 ml/unit, Day 91 after sowing): 12%
Percentage of plants infested with Psila rosae (Psila rosae [1]; carrot seed coating 100 ml/unit, Day 35 after sowing): 7%
Percentage of plants infested with Psila rosae (Psila rosae [1]; carrot seed coating 100 ml/unit, Day 91 after sowing): 10%
Reduction of early damage by maggots (Psila rosae [1]; carrot seed coating): effective in reducing early damage by maggots
Prevention of damage to seedlings compared with Birlane (Psila rosae [1]; carrot seed coating, during the first weeks): slightly more efficient than Birlane™
Percentage of plants infested with Psila rosae (long-term) (Psila rosae [2]; Day 82): 2%
Percentage of plants infested with Psila rosae (long-term) (Psila rosae [2]; Day 96): 4%
Percentage of plants infested with Psila rosae (long-term) (Psila rosae [2]; Day 110): 10%
Percentage of plants infested with Psila rosae (long-term) (Psila rosae [2]; Day 124): 22%
Persistence of the protective effect of seed treatment (Psila rosae [2]): gradually wore off after 3-4 months
Effective dosage of metaflumizone in the treatment of carrot seeds (percentage) (Psila rosae [3]; 25 ml/unit, Day 70): 2%
Effective dosage of metaflumizone in the treatment of carrot seeds (percentage) (Psila rosae [3]; 25 ml/unit, Day 97): 33%
Effective dosage of metaflumizone in the treatment of carrot seeds (percentage) (Psila rosae [3]; 25 ml/unit, Day 116): 73%
Effective dosage of metaflumizone in the treatment of carrot seeds (percentage) (Psila rosae [3]; 50 ml/unit, Day 70): 1%
Effective dosage of metaflumizone in the treatment of carrot seeds (percentage) (Psila rosae [3]; 50 ml/unit, Day 97): 24%
Effective dosage of metaflumizone in the treatment of carrot seeds (percentage) (Psila rosae [3]; 50 ml/unit, Day 116): 61%
Effective dosage of metaflumizone in the treatment of carrot seeds (percentage) (Psila rosae [3]; 75 ml/unit, Day 70): 0%
Effective dosage of metaflumizone in the treatment of carrot seeds (percentage) (Psila rosae [3]; 75 ml/unit, Day 97): 14%
Effective dosage of metaflumizone in the treatment of carrot seeds (percentage) (Psila rosae [3]; 75 ml/unit, Day 116): 55%
Effective dosage of metaflumizone in the treatment of carrot seeds (percentage) (Psila rosae [3]; 100 ml/unit, Day 70): 0%
Effective dosage of metaflumizone in the treatment of carrot seeds (percentage) (Psila rosae [3]; 100 ml/unit, Day 97): 29%
Effective dosage of metaflumizone in the treatment of carrot seeds (percentage) (Psila rosae [3]; 100 ml/unit, Day 116): 55%

CCOP(=O)(OCC)O/C(=C\Cl)c1ccc(Cl)cc1Cl [Birlane ™, chlorfenvinphos, reference compound]
Percentage of growing plants (carrot seeds; carrot seeds, Day 20, coated with Birlane): 52%
Percentage of growing plants (carrot seeds; carrot seeds, Day 43, coated with Birlane): 56%
Influence on the viability of carrot seeds (carrot seeds): no significant influence
Percentage of plants infested with Psila rosae (Psila rosae [1]; carrot seed coating according to label recommendations, Day 35 after sowing): 9%
Percentage of plants infested with Psila rosae (Psila rosae [1]; carrot seed coating according to label recommendations, Day 91 after sowing): 12%
Reduction of early damage by maggots (Psila rosae [1]; carrot seed coating): effective in reducing early damage by maggots
Percentage of plants infested with Psila rosae (long-term) (Psila rosae [2]; Day 82): 0.5%
Percentage of plants infested with Psila rosae (long-term) (Psila rosae [2]; Day 96): 2%
Percentage of plants infested with Psila rosae (long-term) (Psila rosae [2]; Day 110): 8%
Percentage of plants infested with Psila rosae (long-term) (Psila rosae [2]; Day 124): 11%
Persistence of the protective effect of seed treatment (Psila rosae [2]): gradually wore off after 3-4 months
Effective dosage of metaflumizone in the treatment of carrot seeds (percentage) (Psila rosae [3]; Birlane, dose not given, Day 70): 0.1%
Effective dosage of metaflumizone in the treatment of carrot seeds (percentage) (Psila rosae [3]; Birlane, dose not given, Day 97): 23%
Effective dosage of metaflumizone in the treatment of carrot seeds (percentage) (Psila rosae [3]; Birlane, dose not given, Day 116): 61%
